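Results reflect a 48-hour exposure of cells in 96-well plates to compound at five concentrations. At the GI50, growth is halved. TGI is the concentration that stops growth completely.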 Where only a bound is given, the exact number is not on record here.

This passage reports TGI and GI50 results from PubChem BioAssay (NCI).

Test systems include IGROV1 ovarian; MALME-3M melanoma; MOLT-4 leukemia; OVCAR-3 ovarian; OVCAR-5 ovarian; SF-539 CNS; SK-MEL-28 melanoma; TK-10 renal; U251 CNS.
Common to all, as to test: NCI tumour cell line growth inhibition, 48 h

On to `O=c1c2cccc3cccc(c4oc5c6cccc7cccc(c(=O)c5c14)c76)c32`, for which the TGI with IGROV1 ovarian is 28.7 µM; in the test with MALME-3M melanoma, 17.9 µM; in the test with MOLT-4 leukemia it was 21.5 µM; in the test with OVCAR-3 ovarian it was 17 µM; in the test on OVCAR-5 ovarian, over 31.6 µM; in the test with SF-539 CNS, 31.5 µM. Further, the TGI in the test with SK-MEL-28 melanoma was determined as 17.7 µM; with TK-10 renal, 17.5 µM; in the test on U251 CNS, 17.4 µM.
For the molecule `O=c1c(Sc2c(O)c3ccccc3c3ccccc3c2=O)c(O)c2ccccc2c2ccccc12`, the TGI in the test with IGROV1 ovarian was over 100 µM; in the test with MALME-3M melanoma, over 100 µM; in the test with MOLT-4 leukemia, 73.8 µM; with OVCAR-3 ovarian, over 100 µM; with OVCAR-5 ovarian, over 100 µM; in the test on SF-539 CNS, over 100 µM. Further, the TGI was over 100 µM in the test with SK-MEL-28 melanoma, over 100 µM with TK-10 renal and 84 µM in the test with U251 CNS.
For `CCN1CCN(CC(=O)Nc2nc3ccc(NCc4ccc(Cl)cc4)cc3s2)CC1`, the GI50 in the test on IGROV1 ovarian was 3.37 µM; with MALME-3M melanoma it was 1.67 µM; with MOLT-4 leukemia, 2.23 µM; in the test on OVCAR-3 ovarian, 3.16 µM; with SF-539 CNS, 1.69 µM; in the test on SK-MEL-28 melanoma it was 1.8 µM. Also, the GI50 with TK-10 renal is 2.84 µM; in the test on U251 CNS, 2 µM. Further, the TGI in the test with IGROV1 ovarian was found to be 14.9 µM; with MALME-3M melanoma it was 3.2 µM; in the test on MOLT-4 leukemia, 5.78 µM; with OVCAR-3 ovarian, 16.8 µM; with SF-539 CNS it was 3.18 µM; in the test on SK-MEL-28 melanoma it was 3.31 µM. The TGI in the test on TK-10 renal was 7.45 µM; with U251 CNS it was 4.03 µM.
For the molecule `CC(=O)Nc1ccc(/C=N\N2C(=O)c3ccccc3C2=O)cc1`, the TGI in the test on IGROV1 ovarian, with MALME-3M melanoma, in the test on MOLT-4 leukemia, with OVCAR-3 ovarian, in the test with OVCAR-5 ovarian and in the test with SF-539 CNS was over 100 µM each time. In addition, the TGI in the test on SK-MEL-28 melanoma and with TK-10 renal was over 100 µM each time.
In the case of `Nc1c(Br)c(=O)[nH]c(=O)n1COCCO`, the TGI in the test with IGROV1 ovarian, in the test on MALME-3M melanoma, with MOLT-4 leukemia, with OVCAR-3 ovarian, in the test on OVCAR-5 ovarian and in the test with SF-539 CNS was over 100 µM throughout. For the same molecule, the TGI in the test with SK-MEL-28 melanoma, in the test with TK-10 renal and in the test on U251 CNS was over 100 µM in each case.
As for `CC(/C(=N/NC(=O)C(N)=O)c1c(Cl)ccc(Cl)c1O)C1(O)C(=O)Nc2ccccc21` (centres undefined), the TGI in the test with IGROV1 ovarian, in the test on MALME-3M melanoma, with OVCAR-3 ovarian, in the test on OVCAR-5 ovarian, in the test on SF-539 CNS and in the test on SK-MEL-28 melanoma was over 100 µM each time. The TGI in the test with TK-10 renal and in the test on U251 CNS was over 100 µM in each case.
As for `COCC1N=C(c2cc(OC)c(OC)c(OC)c2-c2cc3c(cc2C2OCCCO2)OCO3)O[C@H]1c1ccccc1` (some centres undefined), the TGI with IGROV1 ovarian, in the test on MALME-3M melanoma, in the test with MOLT-4 leukemia, in the test on OVCAR-3 ovarian, with OVCAR-5 ovarian and in the test with SF-539 CNS was over 100 µM each time. In addition, the TGI in the test with SK-MEL-28 melanoma, with TK-10 renal and in the test with U251 CNS was over 100 µM throughout.
Consider `O=C(/C=C/c1ccc(Cl)c(Cl)c1)c1ccc(F)cc1`, for which the TGI with IGROV1 ovarian is 40.2 µM; in the test on MALME-3M melanoma, 83.4 µM; in the test with MOLT-4 leukemia it was 38 µM; in the test on OVCAR-3 ovarian it was 38.1 µM; in the test with OVCAR-5 ovarian, 55.2 µM; with SF-539 CNS it was 38.2 µM. Moreover, the TGI in the test with SK-MEL-28 melanoma amounted to 39.5 µM; with TK-10 renal, 94.7 µM; in the test with U251 CNS, 25.7 µM.
As to `CS(=O)(=O)OCCn1cnc2nc(NC(=O)c3ccccc3)[nH]c(=O)c21`, the TGI in the test on IGROV1 ovarian, with MALME-3M melanoma, in the test with OVCAR-3 ovarian, with OVCAR-5 ovarian, in the test on SF-539 CNS and with SK-MEL-28 melanoma was over 100 µM each time. For the same molecule, the TGI with TK-10 renal and in the test on U251 CNS was over 100 µM each time.
For the molecule `Fc1cccc2cc3ccc4cccc5ccc(c12)c3c45`, the TGI in the test on IGROV1 ovarian, with MALME-3M melanoma, with MOLT-4 leukemia, in the test on OVCAR-3 ovarian, in the test with OVCAR-5 ovarian and in the test on SF-539 CNS was over 100 µM each time. The TGI with SK-MEL-28 melanoma, in the test with TK-10 renal and in the test with U251 CNS was over 100 µM each time.
As for `C=C1C(=O)OC2C1CC[C@H](C)C13OC(=O)CC1[C@@]23C` (some centres undefined), the TGI in the test with IGROV1 ovarian, with MALME-3M melanoma, in the test with MOLT-4 leukemia, with OVCAR-3 ovarian, in the test on OVCAR-5 ovarian and in the test with SF-539 CNS was over 100 µM each time. Further, the TGI with SK-MEL-28 melanoma, with TK-10 renal and with U251 CNS was over 100 µM in each case.
As to `CCC(CC)n1cc(C(=O)NC(=O)NCCCCCOC(=O)CCCCCCCCCCC(=O)OCCCCCNC(=O)NC(=O)c2cn(C(CC)CC)c(=O)[nH]c2=O)c(=O)[nH]c1=O`, the TGI in the test with IGROV1 ovarian, in the test on MALME-3M melanoma, with MOLT-4 leukemia, with OVCAR-3 ovarian, in the test on OVCAR-5 ovarian and in the test on SF-539 CNS was over 100 µM throughout. The TGI with SK-MEL-28 melanoma, in the test with TK-10 renal and in the test on U251 CNS was over 100 µM throughout.
With `O=C1OC(CC(=O)c2ccc(Cl)cc2Cl)C(Cl)=C1Cl` (centres undefined), the TGI in the test with IGROV1 ovarian is over 69.9 µM; in the test with MALME-3M melanoma it was 39.2 µM; in the test with MOLT-4 leukemia, 66.7 µM; in the test with OVCAR-3 ovarian, over 100 µM; in the test with OVCAR-5 ovarian it was over 62.8 µM; with SF-539 CNS it was 44.9 µM. The TGI was 37.2 µM in the test on SK-MEL-28 melanoma, over 79 µM in the test on TK-10 renal and over 72.8 µM with U251 CNS.
For `COc1ccc(C(Cc2cc(OC)c(OC)c(OC)c2)C(=O)O)cc1` (centres undefined), the TGI in the test on IGROV1 ovarian is over 100 µM; in the test with MALME-3M melanoma, over 100 µM; in the test with OVCAR-3 ovarian, 84.7 µM; in the test on OVCAR-5 ovarian, over 100 µM; in the test with SF-539 CNS, over 100 µM; in the test with SK-MEL-28 melanoma, over 100 µM. Further, the TGI in the test on TK-10 renal and with U251 CNS was over 100 µM in each case.
